Patent US9682071B2, “Methods of improving microvascular integrity” (INTERMUNE, INC., priority 2013, dated 2017)

Tested on: trachea allograft mouse model of acute transplant rejection
Assay: murine orthotopic tracheal transplant model (allograft rejection)
Format: in vivo
Details: for tissue oxygenation (pO2): pirfenidone-treated allografted mice vs untreated allografted controls, over time post-transplantation (FIG. 3), pO2 in mm Hg
Procedure: Pirfenidone was tested in a murine orthotopic tracheal transplant model, as generally described in Babu et al., J Clin Invest. 2007; 117(12):3774-3785. In this model in which allograft rejection occurs, typically perfusion ceases after a fixed period of time which is highly reliable (10 days). […] Perfusion is later restored on rejecting allografts as recipient-derived vessels neovascularize the transplant on d28. In contrast, mice receiving syngeneic (identical) grafts maintain tissue oxygenation at approximately the same levels throughout. Magnified images of the microvasculature, obtained after i.v. injection of FITC-conjugated (green) tomato lectin to bind and identify perfused vasculature, are shown in FIG. 1B.

Cc1ccc(=O)n(-c2ccccc2)c1 [Pirfenidone, 5-methyl-1-phenyl-2-(1H)-pyridone]
fibrosis (allograft recipients fed pirfenidone in their chow): significantly attenuated | perfused vasculature (FITC-conjugated tomato lectin images) (allograft recipients fed pirfenidone in their chow, vs control allografted mice receiving no treatment): the vasculature is protected | appearance of vasculature at days 10 and 12 (pirfenidone in chow, days 10 and 12 post-transplantation, FITC-lectin images (FIG. 2)): robust | time vasculature is preserved (pirfenidone-treated allografted mice (FIG. 3)): at least 12 days post-transplantation | tissue oxygenation (pO2): maintained tissue oxygenation at approximately the same levels throughout the time period shown | tissue oxygenation (pO2) (listed as pirfenidone): maintaining tissue oxygenation levels at the same levels through at least day 12
